# Source: patent publication US20150283139A1, “CANCER TREATMENT METHOD” (SmithKline Beecham (Cork) Limited, priority 2004, published 2015)
# How the values were obtained:
# [1] = in vivo; cited from earlier work
# [2] = tested on: non small cell lung cancer (NSCLC) brain metastases; details: eight subjects with newly diagnosed, untreated NSCLC brain metastases; cited from earlier work
# NSCLC adenocarcinoma = details: first-line gefitinib, Asian, female, non-smokers; cited from earlier work
# [3] = tested on: brain metastases from erbB-2 overexpressing, metastatic breast cancer; test: Clinical study of orally administered lapatinib, PET scan of brain lesions; type: in vivo, human; details: one patient, 750 mg lapatinib twice daily, previously treated with trastuzumab
# Source text: Safety and efficacy assessments (independent review) were to be carried out at 2 and 4-week intervals respectively. PET scans were to be run at baseline, 1 week and 8 weeks and MRI at baseline, 8 weeks, and 16 weeks.
compound,measurement,setting,value
Cn1nnc2c(C(N)=O)ncn2c1=O [Temozolomide],crossing of the blood-brain barrier,[1],readily crosses the blood-brain barrier
COc1cc2ncnc(Nc3ccc(F)c(Cl)c3)c2cc1OCCCN1CCOCC1 [gefitinib],subjects with prolonged CNS partial responses,[2],Seven out of eight
same,partial response rate,NSCLC adenocarcinoma,69%
same,systemic disease control rate,NSCLC adenocarcinoma,80%
"CS(=O)(=O)CCNCc1ccc(-c2ccc3ncnc(Nc4ccc(OCc5cccc(F)c5)c(Cl)c4)c3c2)o1.Cc1ccc(S(=O)(=O)O)cc1 [lapatinib, N-{3-Chloro-4-[(3-fluorobenzyl)oxy]phenyl}-6-[5-({[2-(methanesulphonyl)ethyl]amino}methyl)-2-furyl]-4-quinazolinamine ditosylate monhydrate]",initial week 1 PET scan results (brain lesions),[3],promising activity with a dramatic change in one lesion while other brain lesions showed less change or no change at all
